Assay results from US20120220577A1, “GLYCINE B ANTAGONISTS” (Merz Pharma GmbH & Co KgaA, priority 2009, published 2012).

Experiments:
[1] = biological target: NMDA receptor glycine B site (Rattus norvegicus, UniProt P35439); test: Calcium FLIPR studies, rat cortical neurons (NMDA/D-Serine induced intracellular calcium); assay type: cell-based; set-up: Primary neurons are prepared from cortices of embryonal rats at day 17 of pregnancy; endogenous in cells; host or cells: primary rat cortical neurons (E17, 11-13 DIV); conditions: rat cortical neurons; stimulation with 30 μM NMDA and 1 μM D-Serine; antagonist pre-incubated 10 min; read-out: NMDA-FLIPR-rCTX-NAM - IC50
In short: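 Embryonic (E17) Sprague-Dawley rat cortical neurons, 11-13 days in vitro, loaded with Calcium-4 dye (pH 7.3) and pre-incubated with antagonist (5 concentrations) for 10 min at room temperature, then stimulated with 30 μM NMDA plus 1 μM D-Serine. FLIPR AUC as percent of agonist control; IC50 by four-parameter logistic fit.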

[2] = biological target: T1, glycine binding pocket of the NMDA receptor (Rattus norvegicus, UniProt P35439); test: [3H]MDL-105,519 displacement studies (rat cortical membranes); conditions: displacement of 2 nM [3H]-MDL-105,519, rat cortical membranes; read-out: NMDA-MDL 105519-r-CTX - IC50
T1 construct: For isolation of the cell membranes, the cortices are homogenized; from tissue; host or cells: rat cerebral cortex membranes (male Sprague-Dawley)

Structure (SMILES): O=C(O)COc1cc(C(=O)O)cc2cc(Cl)cc(Cl)c12 [Example 1, 4-Carboxymethoxy-5,7-dichloronaphthalene-2-carboxylic acid]
- IC50 [1]: 6.2 µM
- IC50 [2]: 1.18 µM

Structure (SMILES): O=C(COc1cc(C(=O)O)cc2cc(Cl)cc(Cl)c12)Nc1ccccc1C(=O)O [Example 3, 4-[(2-Carboxy-phenylcarbamoyl)-methoxy]-5,7-dichloro-naphthalene-2-carboxylic acid]
- IC50 [1]: 3.27 µM
- IC50 [2]: 0.765 µM

Structure (SMILES): O=C(COc1cc(C(=O)O)cc2cc(Cl)cc(Cl)c12)Nc1ccccc1CO [Example 5, 5,7-Dichloro-4-[(2-hydroxymethylphenylcarbamoyl)-methoxy]-naphthalene-2-carboxylic acid]
- IC50 [1]: 7.08 µM
- IC50 [2]: 0.562 µM

Structure (SMILES): O=C(O)Cc1ccc(NC(=O)COc2cc(C(=O)O)cc3cc(Cl)cc(Cl)c23)cc1 [Example 7, 4-[(4-Carboxymethylphenylcarbamoyl)-methoxy]-5,7-dichloronaphthalene-2-carboxylic acid]
- IC50 [1]: 4.01 µM
- IC50 [2]: 0.958 µM

Structure (SMILES): O=C(O)Cc1cccc(NC(=O)COc2cc(C(=O)O)cc3cc(Cl)cc(Cl)c23)c1 [Example 13, 4-[(3-Carboxymethylphenylcarbamoyl)-methoxy]-5,7-dichloronaphthalene-2-carboxylic acid]
- IC50 [1]: 1.96 µM
- IC50 [2]: 0.457 µM

Structure (SMILES): CN(C(=O)COc1cc(C(=O)O)cc2cc(Cl)cc(Cl)c12)c1ccc(C(=O)O)cc1 [Example 14, 4-{[(4-Carboxy-phenyl)-methylcarbamoyl]-methoxy}-5,7-dichloronaphthalene-2-carboxylic acid]
- IC50 [1]: 7.33 µM
- IC50 [2]: 4.34 µM

Structure (SMILES): O=C(O)Cc1ccccc1NC(=O)COc1cc(C(=O)O)cc2cc(Cl)cc(Cl)c12 [Example 15, 4-[(2-Carboxymethylphenylcarbamoyl)-methoxy]-5,7-dichloronaphthalene-2-carboxylic acid]
- IC50 [1]: 2.68 µM
- IC50 [2]: 0.503 µM

Structure (SMILES): O=C(COc1cc(C(=O)O)cc2cc(Cl)cc(Cl)c12)NCc1ccccc1 [Example 18, 4-(Benzylcarbamoylmethoxy)-5,7-dichloro-naphthalene-2-carboxylic acid]
- IC50 [1]: 9.56 µM
- IC50 [2]: 0.988 µM

Structure (SMILES): CN(C(=O)COc1cc(C(=O)O)cc2cc(Cl)cc(Cl)c12)c1ccccc1C(=O)O [Example 20, 4-{[(2-Carboxyphenyl)-methylcarbamoyl]-methoxy}-5,7-dichloronaphthalene-2-carboxylic acid]
- IC50 [1]: 1.22 µM
- IC50 [2]: 0.405 µM

Structure (SMILES): NCc1ccc(NC(=O)COc2cc(C(=O)O)cc3cc(Cl)cc(Cl)c23)c(OCC(=O)O)c1 [Example 34, 4-[(4-Aminomethyl-2-carboxymethoxyphenylcarbamoyl)-methoxy]-5,7-dichloronaphthalene-2-carboxylic acid]
- IC50 [1]: 0.211 µM
- IC50 [2]: 0.0119 µM

Structure (SMILES): O=C(O)COc1ccccc1NC(=O)COc1cc(C(=O)O)cc2cc(Cl)cc(Cl)c12 [Example 42, 4-[(2-Carboxymethoxyphenylcarbamoyl)-methoxy]-5,7-dichloronaphthalene-2-carboxylic acid]
- IC50 [1]: 0.105 µM
- IC50 [2]: 0.055 µM

Structure (SMILES): O=C(O)c1cc(OCC(=O)N2CCCc3ccccc32)c2c(Cl)cc(Cl)cc2c1 [Example 50, 5,7-Dichloro-4-[2-(3,4-dihydro-2H-quinolin-1-yl)-2-oxo-ethoxy]-naphthalene-2-carboxylic acid]
- IC50 [1]: 7.41 µM
- IC50 [2]: 1.19 µM

Structure (SMILES): O=C(COc1cc(C(=O)O)cc2cc(Cl)cc(Cl)c12)Nc1ccccc1OCC(=O)N1CCOCC1 [Example 54, 5,7-Dichloro-4-{[2-(2-morpholin-4-yl-2-oxo-ethoxy)-phenylcarbamoyl]-methoxy}-naphthalene-2-carboxylic acid]
- IC50 [1]: 1.7 µM
- IC50 [2]: 0.228 µM

Structure (SMILES): O=C(O)COc1ccccc1CNC(=O)COc1cc(C(=O)O)cc2cc(Cl)cc(Cl)c12 [Example 59, 4-[(2-Carboxymethoxy-benzylcarbamoyl)-methoxy]-5,7-dichloro-naphthalene-2-carboxylic acid]
- IC50 [1]: 0.88 µM
- IC50 [2]: 0.083 µM

Structure (SMILES): O=C(COc1cc(C(=O)O)cc2cc(Cl)cc(Cl)c12)Nc1ccccc1OCc1nnn[nH]1 [Example 60, 5,7-Dichloro-4-{[2-(1H-tetrazol-5-ylmethoxy)-phenylcarbamoyl]-methoxy}-naphthalene-2-carboxylic acid]
- IC50 [1]: 1.56 µM
- IC50 [2]: 0.203 µM

Structure (SMILES): COCC(Oc1cc(C(=O)O)cc2cc(Cl)cc(Cl)c12)C(=O)Nc1ccccc1OC (stereo not shown) [Example 74, 5,7-Dichloro-4-[2-methoxy-1-(2-methoxy-phenylcarbamoyl)-ethoxy]-naphthalene-2-carboxylic acid]
- IC50 [1]: 5.46 µM
- IC50 [2]: 1.01 µM

Structure (SMILES): O=C(O)c1cc(OCC(=O)N2CCOc3c(CO)cccc32)c2c(Cl)cc(Cl)cc2c1 [Example 78, 5,7-Dichloro-4-[2-(8-hydroxymethyl-2,3-dihydro-benzo[1,4]oxazin-4-yl)-2-oxo-ethoxy]-naphthalene-2-carboxylic acid]
- IC50 [1]: 4.13 µM
- IC50 [2]: 0.988 µM
